Measurements taken from patent publication US11040981B2, “Pyrrolotriazine compounds and methods of inhibiting TAM kinases” (Syros Pharmaceuticals, Inc., priority 2017, dated 2021).

Experiments:
TYRO3 = target: T1, TYRO3 (Homo sapiens, UniProt Q06418); assay: TR-FRET kinase activity assay, TYRO3; format: biochemical; conditions: ATP at Km, 60 minutes
T1 sequence (Q06418 41-890): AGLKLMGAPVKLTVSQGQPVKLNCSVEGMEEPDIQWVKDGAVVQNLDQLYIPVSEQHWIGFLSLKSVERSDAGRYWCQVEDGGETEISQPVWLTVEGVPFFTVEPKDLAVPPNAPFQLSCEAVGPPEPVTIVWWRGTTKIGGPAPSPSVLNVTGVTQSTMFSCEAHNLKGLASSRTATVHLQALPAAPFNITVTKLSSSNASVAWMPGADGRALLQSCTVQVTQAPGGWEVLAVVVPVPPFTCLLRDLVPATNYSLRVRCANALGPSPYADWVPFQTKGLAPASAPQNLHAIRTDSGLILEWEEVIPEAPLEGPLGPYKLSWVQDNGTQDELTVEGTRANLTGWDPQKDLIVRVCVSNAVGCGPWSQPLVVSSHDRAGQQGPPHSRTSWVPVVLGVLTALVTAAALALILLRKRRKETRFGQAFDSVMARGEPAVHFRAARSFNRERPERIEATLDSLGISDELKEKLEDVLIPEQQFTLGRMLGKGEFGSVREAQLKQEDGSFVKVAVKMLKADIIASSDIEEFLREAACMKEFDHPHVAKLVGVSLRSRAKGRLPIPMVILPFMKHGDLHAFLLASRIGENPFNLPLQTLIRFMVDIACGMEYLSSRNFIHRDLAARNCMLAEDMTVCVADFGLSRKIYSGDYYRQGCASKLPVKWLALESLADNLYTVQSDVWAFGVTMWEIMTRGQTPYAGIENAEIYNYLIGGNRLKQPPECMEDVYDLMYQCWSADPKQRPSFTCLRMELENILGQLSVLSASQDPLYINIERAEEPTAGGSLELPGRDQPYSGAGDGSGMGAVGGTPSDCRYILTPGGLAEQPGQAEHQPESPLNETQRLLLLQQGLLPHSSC
Method in brief: (§1)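 Enzyme, fluorescent peptide substrate and compound were mixed, and the reaction was started with ATP at each kinase's Km, in 50 mM HEPES pH 7.5, 10 mM MgCl2, 1 mM EGTA, 0.01% Brij 35, 1 mM DTT at RT. After 60 minutes EDTA quench, Eu-labelled phospho-specific antibody was added for 30 minutes, and IC50 was derived from TR-FRET signal loss.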

MERTK = target: T2, MERTK (Homo sapiens, UniProt Q12866); assay: TR-FRET kinase activity assay, MERTK; format: biochemical; conditions: for IC50: TR-FRET activity assay, ATP at Km, 60 minutes, read-out: Mer IC50
T2 sequence (Q12866 21-999): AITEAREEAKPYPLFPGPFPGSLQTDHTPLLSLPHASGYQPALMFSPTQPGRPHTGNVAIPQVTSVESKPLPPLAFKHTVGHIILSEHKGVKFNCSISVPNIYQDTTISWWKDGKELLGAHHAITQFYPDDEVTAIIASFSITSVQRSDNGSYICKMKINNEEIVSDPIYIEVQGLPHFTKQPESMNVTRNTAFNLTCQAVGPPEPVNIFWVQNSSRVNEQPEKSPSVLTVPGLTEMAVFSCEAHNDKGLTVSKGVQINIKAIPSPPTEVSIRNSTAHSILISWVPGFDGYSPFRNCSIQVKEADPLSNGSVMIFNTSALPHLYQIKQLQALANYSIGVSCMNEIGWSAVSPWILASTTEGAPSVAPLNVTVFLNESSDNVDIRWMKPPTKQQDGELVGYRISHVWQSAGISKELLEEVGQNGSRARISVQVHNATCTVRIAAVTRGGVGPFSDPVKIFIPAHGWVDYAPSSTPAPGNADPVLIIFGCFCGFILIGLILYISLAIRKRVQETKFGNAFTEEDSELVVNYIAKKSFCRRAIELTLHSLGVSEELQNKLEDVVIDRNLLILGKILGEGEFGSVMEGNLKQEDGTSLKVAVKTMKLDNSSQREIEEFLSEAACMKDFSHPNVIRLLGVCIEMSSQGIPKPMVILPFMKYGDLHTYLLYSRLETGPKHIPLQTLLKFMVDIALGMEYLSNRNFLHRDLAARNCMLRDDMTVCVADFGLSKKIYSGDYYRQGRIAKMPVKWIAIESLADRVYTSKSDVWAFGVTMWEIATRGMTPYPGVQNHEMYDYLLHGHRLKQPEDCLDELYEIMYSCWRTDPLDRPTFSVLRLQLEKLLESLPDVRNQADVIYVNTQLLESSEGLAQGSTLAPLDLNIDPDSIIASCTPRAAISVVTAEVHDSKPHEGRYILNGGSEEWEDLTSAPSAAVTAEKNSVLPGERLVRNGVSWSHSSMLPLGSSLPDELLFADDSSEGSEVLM
Method in brief: as §1

[1] = ratio of Mer to FLT3: FLT3 IC50/Mer IC50
[2] = ratio calculated as FLT3 IC50/Mer IC50

Row | SMILES | IC50 (TYRO3) [nM] | IC50 (MERTK) [nM] | FLT3/Mer ratio (FLT3 IC50/Mer IC50) (MERTK; [1]) | FLT3/Mer ratio (FLT3 IC50/Mer IC50) (MERTK; [2])
1 | CCCCC[C@H](C)Nc1ncc2c([C@H]3CC[C@@H](C(=O)O)CC3)cc([C@H]3CC[C@H](O)CC3)n2n1 [Compound 125, (cis)-4-(2-((S)-heptan-2-ylamino)-7-((trans)-4-hydroxycyclohexyl)pyrrolo[2,1-f][1,2,4]triazin-5-yl)cyclohexanecarboxylic acid] | 100 to 1000 | ≤ 100 | ++ (“++” represents a ratio of between 10 and 100) | 
2 | C[C@@H](CC(F)(F)F)Nc1ncc2c(-c3ccnc(N4CCOCC4)c3)cc([C@H]3CC[C@H](O)CC3)n2n1 [Compound 346] | ≤ 100 | ≤ 100 | +++ (“+++” represents a ratio of >100) | 
3 | CNC(=O)c1cc(-c2cc([C@H]3CC[C@H](O)CC3)n3nc(N[C@@H](C)COC(F)F)ncc23)ccn1 [Compound 411] | ≤ 100 | ≤ 100 |  | +++ (“+++” represents a ratio of >100)
4 | CC(CC(F)F)Nc1ncc2c(-c3ccc(CN4CCN(C)CC4)cc3)cc(C3CCC(O)CC3)n2n1 (stereo not drawn) [Compound 352] | ≤ 100 | ≤ 100 | ++ (“++” represents a ratio of between 10 and 100) | 
5 | CNOc1cc(-c2cc([C@H]3CC[C@H](O)CC3)n3nc(N[C@@H](C)COC)ncc23)ccn1 [Compound 361] | ≤ 100 | ≤ 100 | +++ (“+++” represents a ratio of >100) | 
6 | O[C@H]1CC[C@H](c2cc(-c3ccnc(N4CCOCC4)c3)c3cnc(N[C@H]4CCOC4)nn32)CC1 [Compound 362] | ≤ 100 | ≤ 100 | ++ (“++” represents a ratio of between 10 and 100) | 
7 | COC[C@H](C)Nc1ncc2c([C@@H]3CCCN(c4ccnc(C)n4)C3)cc([C@H]3CC[C@H](O)CC3)n2n1 [Compound 378] | 100 to 1000 | ≤ 100 | +++ (“+++” represents a ratio of >100) | 
8 | C[C@@H](CN(C)C)Nc1ncc2c(-c3cnn(C4COC4)c3)cc([C@H]3CC[C@H](O)CC3)n2n1 [Compound 387] | 100 to 1000 | 100 to 1000 | ++ (“++” represents a ratio of between 10 and 100) | 
9 | CNC(=O)c1cc(-c2cc([C@H]3CC[C@H](O)CC3)n3nc(N[C@@H](C)CC(F)(F)F)ncc23)ccn1 [Compound 384] | ≤ 100 | ≤ 100 | +++ (“+++” represents a ratio of >100) | 
10 | CC(C)Nc1ncc2c(-c3ccnc(N4CCOCC4)c3)cc([C@H]3CC[C@H](O)CC3)n2n1 [Compound 350] | ≤ 100 | ≤ 100 | +++ (“+++” represents a ratio of >100) | 
11 | CNC(=O)c1cc(-c2cc([C@H]3CC[C@H](O)CC3)n3nc(N[C@@H](C)COC(F)F)ncc23)cc(C)n1 [Compound 385] | ≤ 100 | ≤ 100 | +++ (“+++” represents a ratio of >100) | 
12 | CCC(C)Nc1ncc2c(C)cc(C3CCC(O)CC3)n2n1 (stereo not drawn) [Compound 123] | 100 to 1000 | ≤ 100 | +++ (“+++” represents a ratio of >100) | 
13 | COC[C@H](C)Nc1ncc2c(-c3ccnc(N4CCS(=O)(=O)CC4)c3)cc([C@H]3CC[C@H](O)CC3)n2n1 [Compound 357] | ≤ 100 | ≤ 100 | +++ (“+++” represents a ratio of >100) | 
14 | CNC(=O)c1cncc(-c2cc([C@H]3CC[C@H](O)CC3)n3nc(N[C@@H](C)COC(F)F)ncc23)c1 [Compound 398] | ≤ 100 | ≤ 100 |  | +++ (“+++” represents a ratio of >100)

Continued, values first:

Row | IC50 (TYRO3) [nM] | IC50 (MERTK) [nM] | FLT3/Mer ratio (FLT3 IC50/Mer IC50) (MERTK; [1]) | FLT3/Mer ratio (FLT3 IC50/Mer IC50) (MERTK; [2]) | SMILES
15 | ≤ 100 | ≤ 100 |  | +++ (“+++” represents a ratio of >100) | COC[C@H](C)Nc1ncc2c(-c3ccnc(NC4CCOC4)c3)cc([C@H]3CC[C@H](O)CC3)n2n1 (stereo partly drawn) [Compound 418]
16 | ≤ 100 | ≤ 100 | +++ (“+++” represents a ratio of >100) |  | COC[C@H](C)Nc1ncc2c([C@H]3CCN(S(C)(=O)=O)C3)cc([C@H]3CC[C@H](O)CC3)n2n1 [Compound 376]
17 | ≤ 100 | ≤ 100 |  | +++ (“+++” represents a ratio of >100) | COC[C@H](C)Nc1ncc2c(-c3cnn([C@H]4CCN(C(C)=O)C4)c3)cc([C@H]3CC[C@H](O)CC3)n2n1 [Compound 397]
18 | ≤ 100 | ≤ 100 |  | +++ (“+++” represents a ratio of >100) | COC[C@H](C)Nc1ncc2c(-c3ccnc(O[C@@H]4CCNC4)c3)cc([C@H]3CC[C@H](O)CC3)n2n1 [Compound 401]
19 | ≤ 100 | ≤ 100 | +++ (“+++” represents a ratio of >100) |  | COC[C@H](C)Nc1ncc2c(-c3cnn(C(C)(C)C(=O)N4C[C@@H](C)O[C@H](C)C4)c3)cc([C@H]3CC[C@H](O)CC3)n2n1 [Compound 367]
20 | ≤ 100 | ≤ 100 | +++ (“+++” represents a ratio of >100) |  | COC[C@H](C)Nc1ncc2c(-c3cnn([C@H]4CCNC4=O)c3)cc([C@H]3CC[C@H](O)CC3)n2n1 [Compound 348]
21 | ≤ 100 | ≤ 100 |  | +++ (“+++” represents a ratio of >100) | COC[C@H](C)Nc1ncc2c(-c3cnn([C@@H]4CCN(C(C)=O)C4)c3)cc([C@H]3CC[C@H](O)CC3)n2n1 [Compound 396]
22 | ≤ 100 | ≤ 100 |  | +++ (“+++” represents a ratio of >100) | COC[C@H](C)Nc1ncc2c(-c3ccnc(O[C@H]4CCN(C)C4)c3)cc([C@H]3CC[C@H](O)CC3)n2n1 [Compound 400]
23 | ≤ 100 | ≤ 100 | +++ (“+++” represents a ratio of >100) |  | COC[C@H](C)Nc1ncc2c(-c3cnn(C[C@@H]4CCC(=O)N4)c3)cc([C@H]3CC[C@H](O)CC3)n2n1 [Compound 368]
